Laboratory results from article PMC10649961, “Novel Mitochondria-Targeted Amphiphilic Aminophosphonium Salts and Lipids Nanoparticles: Synthesis, Antitumor Activity and Toxicity” (Nanomaterials, 2023).
Where two headings read alike, the source gives them in different places. Where a SMILES comes first, the peptide text is derived from it. [ ]: non-standard residue; d: D form. Orn = NCCC[C@H](N)C(=O)O

How the values were obtained:
HuTu 80 [1] = assay: cells; settings: Homo sapiens, HuTu80, 48 h, read-out: Cytotoxic Effects (IC50)
mice of the CD-1 line = assay: In vivo acute toxicity, single intraperitoneal injection; settings: for onset of animal death after administration: CD-1 mice, i.p., doses of LD100; for acute toxicity class: according to the classification [105], parenteral administration
Procedure: (§1) The study of acute toxicity was performed on males of outbred white mice of the CD-1 line at the age of 2–3 months, weighing 20–30 g. The total number of mice participating in the experiment was 300. Mice were obtained from the Research and Production Enterprise Laboratory Animal Farm based at the Branch of Shemyakin and Ovchinnikov Institute of Bioorganic Chemistry of the Russian Academy of Sciences (Pushchino, Russia). The animals were kept in accordance with in standard conditions in a vivarium with 12 h of daylight and free access to food and water. The animals were fed complete feed made according to specifications (protein 22%, fiber 4% max., fat 5% max, ash 9% max, humidity 13.5% max, caloric value 295 kcal/100 g). The studies were conducted with a single parenteral–intraperitoneal (intra-peritoneal) injection, according to the method.
(§2) The substances were introduced in a sterile saline DMSO (40% vol.) solution. Solutions of the substances were prepared immediately before administration. The total volume of the injected liquid was 0.1 mL/10 g of animal weight. As a control, a group of mice was administered under similar conditions an equivalent amount (0.1 mL/10 g, or 10 mL/kg) of a solvent—40% DMSO on sterile saline solution. The substances were administered in doses ranging from 1 to 100 mg/kg; there were six animals in each group. To assess acute toxicity, the animals were monitored 14 days after administration of the substance, assessing their general condition and recording deaths.
(§3) The study of the acute toxicity parameters of six aminophosphonium salts 4a, 4b, 4d, 5a, 5b, and 6b was performed on male outbreed white mice of the CD-1 line. Acute toxicity was determined with a single parenteral (intraperitoneal) administration in sterile saline/DMSO (40% vol.) solution at doses from 1 to 100 mg/kg. To assess acute toxicity, the animals were monitored for 14 days after the introduction of substances, assessing their general condition and recording deaths. Next, lethal doses LD50, LD0, LD16, LD84, and LD100 were calculated using the Probit analysis method. LD0, LD16, LD84, and LD100 are given in Supplementary Material (Table S1).

[2] = as above; set-up: species or system mice; settings: male, CD-1, mouse, in vivo, ip, male CD-1 mice, single intraperitoneal administration, 14 days, Probit analysis
Procedure: as §1, §2, §3

[3] = system: Enterococcus faecalis ATCC 29212; assay: Antimicrobial activity, serial microdilutions, Ef; assay type: cell-based; settings: Enterococcus faecalis
Procedure: (§4) The antimicrobial activity of test compounds was determined by serial microdilutions in 96-well plates using Mueller-Hinton broth for bacterial culture and Sabouraud broth for yeast culture. Cultures of Gram-positive bacteria were used in the experiment: Staphylococcus aureus ATCC 6538 P FDA 209P, Bacillus cereus ATCC 10702 NCTC 8035, Enterococcus faecalis ATCC 29212; Gram-negative bacteria: Escherichia coli ATCC 25922, Pseudomonas aeruginosa ATCC 9027; and yeast: Candida albicans ATCC 10231, purchased from the State Collection of Pathogenic Microorganisms and Cell Cultures “SCPM-Obolensk” (Obolensk, Russia). Methicillin-resistant strains of S. aureus (MRSA) were isolated from patients with chronic tonsillitis (MRSA-1) and sinusitis (MRSA-2) in the bacteriological laboratory of the Republican Clinical Hospital (Kazan, Russia). The experiments were carried out in triplicate.

Hep G2 [4] = system: Hep G2
SK-OV-3 [5] = system: SK-OV-3
PC3 [6] = system: PC3
MRSA-1 = assay: Antimicrobial activity, serial microdilutions, MRSA-1; assay type: cell-based, S. aureus; set-up: key to Minimum Inhibitory Concentration (MIC) / Minimum bactericidal and fungicidal concentrations (MBC, MFC): – means non-active
Procedure: as §4

PC3 [7] = assay: cells; settings: Homo sapiens, PC-3, 48 h, read-out: Cytotoxic Effects (IC50), PC3, MTT assay, 48 h
[8] = system: Bacillus cereus ATCC 10702 NCTC 8035; assay: Antimicrobial activity, serial microdilutions, Bc; assay type: cell-based; set-up: key to Minimum bactericidal and fungicidal concentrations (MBC, MFC): – means non-active; settings: Bc
Procedure: as §4

T98G [9] = assay: cells; settings: Homo sapiens, 48 h, read-out: Cytotoxic Effects (IC50)
PANC-1 [10] = system: PANC-1
A549 [11] = system: A549
SK-OV-3 [12] = assay: cells; settings: Homo sapiens, SK-OV-3, 48 h, read-out: Cytotoxic Effects (IC50)
T98G [13] = system: T98G
MCF-7 [14] = assay: cells; settings: Homo sapiens, MCF7, 48 h, read-out: Cytotoxic Effects (IC50)
M-HeLa [15] = system: M-HeLa
DU-145 [16] = system: DU-145
HuTu 80 [17] = system: HuTu 80
[18] = system: Staphylococcus aureus ATCC 6538 P FDA 209P; assay: Antimicrobial activity, serial microdilutions, Sa; assay type: cell-based; settings: Staphylococcus aureus
Procedure: as §4

Hep G2 [19] = assay: cells; settings: Homo sapiens, HepG2, 48 h, read-out: Cytotoxic Effects (IC50)
[20] = system: Escherichia coli ATCC 25922; assay: Antimicrobial activity, serial microdilutions, Ec; assay type: cell-based; set-up: key to Minimum Inhibitory Concentration (MIC) / Minimum bactericidal and fungicidal concentrations (MBC, MFC): – means non-active
Procedure: as §4

[21] = system: Pseudomonas aeruginosa ATCC 9027; assay: Antimicrobial activity, serial microdilutions, Pa; assay type: cell-based; set-up: key to Minimum Inhibitory Concentration (MIC) / Minimum bactericidal and fungicidal concentrations (MBC, MFC): – means non-active
Procedure: as §4

MCF-7 [22] = system: MCF-7
A549 [23] = assay: cells; settings: Homo sapiens, A549, 48 h, read-out: Cytotoxic Effects (IC50)
MRSA-2 = assay: Antimicrobial activity, serial microdilutions, MRSA-2; assay type: cell-based, S. aureus; settings: Staphylococcus aureus
Procedure: as §4

DU-145 [24] = assay: cells; settings: Homo sapiens, DU-145, 48 h, read-out: Cytotoxic Effects (IC50), DU-145, MTT assay, 48 h
PANC-1 [25] = assay: cells; settings: Homo sapiens, PANC-1, 48 h, read-out: Cytotoxic Effects (IC50)
M-HeLa [26] = assay: cells; settings: Homo sapiens, 48 h, read-out: Cytotoxic Effects (IC50)
[27] = system: Candida albicans ATCC 10231; assay: Antimicrobial activity, serial microdilutions, Ca; assay type: cell-based; set-up: key to Minimum Inhibitory Concentration (MIC) / Minimum bactericidal and fungicidal concentrations (MBC, MFC): – means non-active; settings: Ca
Procedure: as §4

[28] = system: human volunteer donor erythrocytes; assay: Hemolytic assay; assay type: cell-based; settings: hemolysis in 50% of human erythrocytes, 1 h, 37 °C
Procedure: The hemolytic activity of Aminophosphonium Salts was assessed by comparing the optical density of a solution containing the test compound with the optical density of blood at 100% hemolysis. Healthy human volunteer donor erythrocytes were used as the object of the study. Red blood cells with EDTA (1.8 mg/mL) were washed three times with saline (0.9% NaCl), centrifuged for 10 min at 800× g rpm, and resuspended in saline (0.9% NaCl) to a concentration of 10%. The tested concentrations (0.1–100 μM) were prepared in physiological solution (0.9% NaCl) (with the addition of 5% DMSO). Compounds at the appropriate dilution (450 μL) were added to 50 μL of a 10% red blood cell suspension. Samples were incubated for 1 h at 37 °C and centrifuged for 10 min at 2000 rpm. The release of hemoglobin was controlled by measuring the optical density of the supernatant on an InvitroLogic microplate reader at λ = 540 nm. A control sample corresponding to zero hemolysis (blank experiment) was prepared by adding 50 μL of a 10% red blood cell suspension to 450 μL of saline (0.9% NaCl). A control sample corresponding to 100% hemolysis was prepared by adding 50 μL of a 10% red blood cell suspension to 450 μL of distilled water. Blood was taken at the Clinic of the Federal Research Center “Kazan Scientific Center of the Russian Academy of Sciences” from healthy donors with their personal consent.

[29] = reference normal cell line not marked at the place (ns cells)
[30] = calculated relative to the cell line Chang liver (b)
[31] = read-out: Minimum Inhibitory Concentration (MIC)
[32] = read-out: Minimum bactericidal and fungicidal concentrations (MBC, MFC)
[33] = calculated relative to the cell line WI38 (a)

Compound: CCCCCC[P+](N(CC)CC)(N(CC)CC)N(CC)CC [4a, Tris(diethylamino)(hexyl)phosphonium iodide]
- IC50 (HuTu 80 [1]): 11.4 ± 0.9 µM
- onset of animal death after administration (mice of the CD-1 line): 1 to 2 h
- acute toxicity class (mice of the CD-1 line): moderately toxic
- LD50 at 14 days [2]: 31.7 mg/kg
- MIC ([3]; ATCC29212, read-out: Minimum Inhibitory Concentration (MIC)): 250 ± 21 µM
- MBC ([3]; ATCC29212, read-out: Minimum bactericidal and fungicidal concentrations (MBC, MFC)): 500 ± 46 µM
- selectivity index (SI) (Hep G2 [4]; [29]): ns (ns—no selectivity)
- selectivity index (SI) (SK-OV-3 [5]; [29]): ns (ns—no selectivity)
- selectivity index (SI) (PC3 [6]; [29]): ns (ns—no selectivity)
- Minimum bactericidal and fungicidal concentrations (MBC, MFC) (MRSA-1): –
- MIC (MRSA-1; Staphylococcus aureus, read-out: Minimum Inhibitory Concentration (MIC)): 125 ± 10 µM
- IC50 (PC3 [7]): 44 ± 3.1 µM
- MIC ([8]; Bacillus cereus, read-out: Minimum Inhibitory Concentration (MIC)): 62.5 ± 5.3 µM
- Minimum bactericidal and fungicidal concentrations (MBC, MFC) [8]: –
- IC50 (T98G [9]): 57.4 ± 4 µM
- selectivity index (SI) (PANC-1 [10]; [30]): 1.1
- selectivity index (SI) (A549 [11]; [29]): ns (ns—no selectivity)
- IC50 (SK-OV-3 [12]): 46.6 ± 3.5 µM
- selectivity index (SI) (T98G [13]; [29]): ns (ns—no selectivity)
- IC50 (MCF-7 [14]): 26 ± 1.8 µM
- selectivity index (SI) (M-HeLa [15]; [29]): ns (ns—no selectivity)
- selectivity index (SI) (DU-145 [16]; [29]): ns (ns—no selectivity)
- selectivity index (SI) (HuTu 80 [17]; [30]): 1.6
- MIC [18, 31]: 62.5 ± 5.2 µM
- MBC [18, 32]: 250 ± 20 µM
- IC50 (Hep G2 [19]): 46.6 ± 3.3 µM
- Minimum Inhibitory Concentration (MIC) [20]: –
- Minimum bactericidal and fungicidal concentrations (MBC, MFC) [20]: –
- Minimum Inhibitory Concentration (MIC) [21]: –
- Minimum bactericidal and fungicidal concentrations (MBC, MFC) [21]: –
- selectivity index (SI) (MCF-7 [22]; [29]): ns (ns—no selectivity)
- IC50 (A549 [23]): 64.1 ± 4.5 µM
- MIC (MRSA-2; [31]): 125 ± 11 µM
- MBC (MRSA-2; [32]): 125 ± 10 µM
- IC50 (DU-145 [24]): 26.2 ± 1.9 µM
- IC50 (PANC-1 [25]): 16.1 ± 1.3 µM
- IC50 (M-HeLa [26]): 52.4 ± 3.7 µM
- Minimum Inhibitory Concentration (MIC) [27]: –
- Minimum bactericidal and fungicidal concentrations (MBC, MFC) [27]: –

Compound: CCCCCC[P+](c1ccccc1)(N(CC)CC)N(CC)CC [5a, Bis(diethylamino)(hexyl)(phenyl)phosphonium iodide]
- IC50 (HuTu 80 [1]): 0.3 ± 0.02 µM
- onset of animal death after administration (mice of the CD-1 line): 1 to 2 h
- acute toxicity class (mice of the CD-1 line): moderately toxic
- LD50 at 14 days [2]: 44.7 mg/kg
- selectivity index (SI) (Hep G2 [4]; [33]): 3.8
- selectivity index (SI) (SK-OV-3 [5]; [33]): 3.2
- times less toxic toward the normal WI38 cell line compared with doxorubicin (WI38): 157 times
- selectivity index (SI) (PC3 [6]; [33]): 13
- IC50 (PC3 [7]): 4.9 ± 0.4 µM
- IC50 (T98G [9]): 30.3 ± 2.1 µM
- selectivity index (SI) (PANC-1 [10]; [33]): 3.5
- selectivity index (SI) (A549 [11]; [33]): 3.7
- IC50 (SK-OV-3 [12]): 20 ± 1.6 µM
- selectivity index (SI) (T98G [13]; [33]): 3.7
- IC50 (MCF-7 [14]): 17.1 ± 1.3 µM
- selectivity index (SI) (M-HeLa [15]; [33]): 2.7
- selectivity index (SI) (DU-145 [16]; [33]): 10
- selectivity index (SI) (HuTu 80 [17]; [33]): 210
- IC50 (Hep G2 [19]): 16.5 ± 1.3 µM
- selectivity index (SI) (MCF-7 [22]; [33]): 3.7
- IC50 (A549 [23]): 17 ± 1.3 µM
- IC50 (DU-145 [24]): 6.3 ± 0.5 µM
- IC50 (PANC-1 [25]): 17.8 ± 1.4 µM
- IC50 (M-HeLa [26]): 23 ± 1.6 µM

Compound: CC(C)C[C@@H]1NC(=O)[C@H](CCCN)NC(=O)[C@H](C(C)C)NC(=O)[C@@H]2CCCN2C(=O)[C@@H](Cc2ccccc2)NC(=O)[C@H](CC(C)C)NC(=O)[C@H](CCCN)NC(=O)[C@H](C(C)C)NC(=O)[C@@H]2CCCN2C(=O)[C@@H](Cc2ccccc2)NC1=O [Gramicidin S, reference compound] (cyclo(L[dF]PV[Orn]L[dF]PV[Orn]))
- HC50 [28]: 9.4 ± 0.8 µM
